{
  "source": "patent US12569557B2",
  "about": "“Targeting moDC to enhance vaccine efficacy on mucosal surface” (UNIVERSITY OF FLORIDA RESEARCH FOUNDATION, INCORPORATED, priority 2018, dated 2026)",
  "key": {"lung DCs": {"system": "lung DCs", "assay": "Lung DC / alveolar macrophage maturation (CD86, CCR7) after intranasal CDG, flow cytometry", "assay_type": "in vivo, mice"}, "RelA, RelB, TBK1": {"system": "RelA, RelB, TBK1", "assay": "pRelA, pRelB and p-TBK1 in lung DC subsets after intranasal CDG, flow cytometry", "assay_type": "in vivo, mice"}, "lung TNF [1]": {"system": "lung TNF", "assay": "Detection of lung cytokine production after intranasal CDG (ELISA of lung homogenates)", "assay_type": "in vivo, mice", "protocol": "Mice were intranasally administered 5 μg CDG, then sacrificed after 5 hrs by C02 asphyxiation^17. Lungs were perfused with cold PBS. The harvested lungs were washed with PBS once, then stored in 0.7 ml Tissue protein extraction reagent (T-PER) (Thermo Scientific, cat #78510) containing protease inhibitors (Roche, cat #11836153001) at −80° C. Later, the lung was thawed on ice and homogenized with Minilys® (Precellys, 5,000 RPM for 30 sec) using Precellys lysing kit (Precellys, cat #KT03961). Lung homogenates were transferred to a 1.5 ml tube and spun at 14,000 g for 30 min at 4° C. The supernatant was collected and analyzed for TNF production by ELISA (eBioscience, cat #88-7324)."}, "anti-PspA IgG and IgA": {"system": "anti-PspA IgG and IgA", "assay": "Intranasal CDG/PspA immunization: PspA-specific antibodies in serum and BALF by ELISA", "assay_type": "in vivo, mice", "protocol": "(§1) Groups of mice (4 per group) were intranasally vaccinated with CDG (5 μg, Invivogen, cat #vac-cdg) adjuvanted PspA (2 μg, BEI Resources) or PspA alone^17. Mice were immunized twice at 14 days interval. For intranasal vaccination, animals were anesthetized using isoflurane in an E-Z Anesthesia system (Euthanex Corp, Palmer, Pa.). PspA, with or without CDG was administered in 20 μl saline. Sera were collected 14 days after the last immunization. The PspA-specific Abs were determined by ELISA. Secondary Abs used were anti-mouse IgG1-HRP (Southern Biotech, cat #1070-05), anti-mouse IgG2C-HRP (Southern Biotech, cat #1079-05), and anti-mouse IgA-HRP (Southern Biotech, cat #1040-05). To determine Ag-specific Th response, splenocytes from PspA or CDG+PspA immunized mice were stimulated with 5 μg/ml PspA for four days in culture. Th1, Th2, and Th17 cytokines were measured in the supernatant by ELISA."}, "[2]": {"system": "PspA-specific Th1, Th2, Th17 responses", "assay": "Ex vivo recall of PspA-specific Th responses in lung cells and splenocytes of immunized mice", "conditions": "immunized IRF4fl/flCD11ccre mice", "protocol": "as §1"}, "TNFR2": {"system": "TNFR2", "assay_type": "in vivo, mice"}, "mTNF": {"system": "mTNF", "assay": "Cell surface mTNF expression on lung DCs detected with TNFR2-Fc recombinant protein", "assay_type": "in vivo", "conditions": "WT mice, i.n. CDG 16 hours", "protocol": "We intranasally administered CDG to WT mice for 16 hours and detected cell surface mTNF expression using […] recombinant protein (FIG. 8A).\nThe following Abs from Biolegend were used in the flow cytometry: CD80 (16-10A1), CD86 (GL1), CD11B (M1/70), CD11C (N418), FcεRIa (MAR-1), MHC II (M5/114.15.2), CD103(2E7), CD24 (m1/69), CD64 (x54-5/7.1), CCR7 (4B12), TNF (MP6-XT22), TNFR2 (TR75-89), PD-L1 (10F.9G2), BTLA (8F4), PD-L2 (TY25), CD301b (URA-1), CX3CR1 (SA011F11), CD172a (P84), CD44 (IM7). The following Abs were from Cell Signaling: p-TBK1 (ser172, d52c2), p-RelB (ser552, d41b9), p-RelA (ser536, cat #4887S). The following reagents were from Sino Biological: TNFR2 Ab (cat #50128-R112-A), TNFR2-Fc (mouse TNFR2 extracellular domain, Met 1-Gly 258, was fused with the Fc region of human IgG1 at the C-terminus, cat #50128-M02H), human IgG1 Fc (cat #10702-HNAH). Alexa Fluor®488 mouse anti-human IgG1 Fc was from Invitrogen (cat #A-10631). FITC-CDG (2′-Fluo-AHC-CDG) was from Biolog (cat #F009). Cell sorting was performed on the BD FACSAriaIII Flow Cytometer and Cell Sorter. After sorting, dendritic cells were CFSE labeled, according to the protocol from the manufacturer (Invitrogen)."}, "moDCs": {"system": "moDCs", "assay": "Antigen presentation by lung moDCs after intranasal CDG and Eα-OVA (YAE mAb)", "assay_type": "in vivo, C57BL/6 mice", "conditions": "CDG and Eα-OVA i.n.", "source_text": "How does non-migratory moDCs (FIGS. 1D & 12B)^25,33 promote CDG-induced antibody responses? moDCs were efficient at antigen processing (FIG. 8D). We first asked if they presented antigen on cell surface. We intranasally administered C57BL/6 mice with CDG and Eα-OVA, and detected I-A^b/Eα^+ cells with the YAE mAb. Indeed, CDG increased YAE^+ moDCs in vivo (FIG. 9A)."}, "lung TNF [3]": {"system": "lung TNF", "conditions": "administered intranasally; cited from earlier work"}, "[4]": {"conditions": "cited from earlier work"}, "[5]": {"system": "H5N1 influenza, Acinetobacter baumannii, Staphylococcus aureus, Klebsiella pneumoniae and Streptococcus pneumoniae", "conditions": "cited from earlier work"}},
  "note": "“Also recorded” adds a separate entry of the source.",
  "data": [
    {"smiles": "Nc1nc2c(ncn2[C@@H]2O[C@@H]3COP(=O)(O)O[C@H]4[C@@H](O)[C@H](n5cnc6c(=O)[nH]c(N)nc65)O[C@@H]4COP(=O)(O)O[C@H]3[C@H]2O)c(=O)[nH]1", "note": "[CDG, cyclic di-GMP]", "values": [
      {"measurement": "CD86 on lung moDCs", "setting": "lung DCs; Batf3−/− mice", "result": "unaltered"},
      {"measurement": "CD86 on lung moDCs", "setting": "lung DCs; IRF4fl/flCD11ccre mice", "result": "failed to upregulate CD86"},
      {"measurement": "Activation of lung DCs (CD86)", "setting": "lung DCs; MPYSfl/flLysMcre mice", "result": "unaltered"},
      {"measurement": "CD86 expression on moDCs", "setting": "lung DCs; MPYSfl/flLysMcre mice", "result": "normal levels of CD86 expression"},
      {"measurement": "CD86 on lung cDC1", "setting": "lung DCs; RelBfl/flCD11ccre mice", "result": "upregulated CD86"},
      {"measurement": "CD86 on lung cDC2", "setting": "lung DCs; RelBfl/flCD11ccre mice", "result": "failed to upregulate CD86"},
      {"measurement": "CD86 on lung moDCs", "setting": "lung DCs; RelBfl/flCD11ccre mice", "result": "induced"},
      {"measurement": "CD86 and CCR7 expression on cDC1", "setting": "lung DCs; TNFR2−/− mice", "result": "induced"},
      {"measurement": "CD86 on lung moDCs", "setting": "lung DCs; TNFR2−/− mice", "result": "did not upregulate CD86"},
      {"measurement": "CD86 or CCR7 expression in lung cDC2", "setting": "lung DCs; TNFR2−/− mice", "result": "did not enhance"},
      {"measurement": "CD86 expression on alveolar macrophages", "setting": "lung DCs; WT mice, CDG treatment i.n.", "result": "did not increase expression of CD86"},
      {"measurement": "CCR7 expression on lung moDCs", "setting": "lung DCs; WT mice, i.n. CDG", "result": "did not increase CCR7"},
      {"measurement": "CD86 and CCR7 expression in lung cDC1 and cDC2", "setting": "lung DCs; WT mice, i.n. CDG", "result": "increased"},
      {"measurement": "CD86 expression on lung moDCs", "setting": "lung DCs; WT mice, i.n. CDG", "result": "increased expression of CD86"},
      {"measurement": "Migration of activated moDCs to lung draining lymph nodes", "setting": "lung DCs; WT mice, i.n. CDG", "result": "did not migrate to dLNs"},
      {"measurement": "TBK1 activation (p-TBK1) in cDC2", "setting": "RelA, RelB, TBK1; TNFR2−/− mice", "result": "activated"},
      {"measurement": "RelA activation in lung cDC1", "setting": "RelA, RelB, TBK1; i.n. CDG", "result": "activated RelA"},
      {"measurement": "RelA and RelB activation in lung moDCs", "setting": "RelA, RelB, TBK1; i.n. CDG", "result": "activated both RelA and RelB"},
      {"measurement": "RelB activation in lung cDC2", "setting": "RelA, RelB, TBK1; i.n. CDG", "result": "activated RelB; also recorded: further activate RelB"},
      {"measurement": "CDG-induced lung MCP-1 production", "setting": "lung TNF [1]; Batf3−/− mice (lack cDC1)", "result": "largely absent"},
      {"measurement": "CDG-induced lung production of TNF, IL-1β and IL-12p70", "setting": "lung TNF [1]; IRF4fl/flCD11ccre mice (lack cDC2)", "result": "dramatically reduced"},
      {"measurement": "CDG-induced lung TNF production", "setting": "lung TNF [1]; TBK1fl/flVavCre mice", "result": "dramatically reduced"},
      {"measurement": "Lung TNF", "setting": "lung TNF [1]; TNFR2−/− mice", "result": "induced"},
      {"measurement": "Anti-PspA Abs in BALF and serum", "setting": "anti-PspA IgG and IgA; IRF4fl/flCD11ccre mice, PspA with CDG i.n.", "result": "did not induce"},
      {"measurement": "Humoral and cellular immune responses", "setting": "anti-PspA IgG and IgA; TNFR1−/− mice", "result": "reduced humoral and cellular immune responses"},
      {"measurement": "Adjuvant activity (humoral and cellular responses)", "setting": "anti-PspA IgG and IgA; TNFR2−/− mice", "result": "completely lost its adjuvant activity"},
      {"measurement": "PspA-specific Th1, Th2, Th17 responses, ex vivo recall in lung cells and splenocytes", "setting": "[2]", "result": "did not show PspA-specific Th1, Th2 or Th17 responses"},
      {"measurement": "TNFR2 expression on moDCs", "setting": "TNFR2; WT mice", "result": "induced"},
      {"measurement": "TNFR2 expression on lung cDC1", "setting": "TNFR2; WT mice, i.n. CDG 16 hrs", "result": "dramatically increased"},
      {"measurement": "PD-L1 expression on transferred TNFR2+ and TNFR2− cDC2", "setting": "TNFR2; cDC2 subsets transferred into MPYS−/− mice, CDG i.n. 16 hrs", "result": "did not affect"},
      {"measurement": "mTNF expression on TNFR2+ cDC2", "setting": "mTNF", "result": "expressed little mTNF"},
      {"measurement": "mTNF expression on TNFR2− cDC2", "setting": "mTNF", "result": "main mTNF^+ cDC2 cells"},
      {"measurement": "YAE+ moDCs (I-Ab/Eα presentation)", "setting": "moDCs", "result": "increased"},
      {"measurement": "Lung production of TNF, IL-1β and IL-10", "setting": "lung TNF [3]", "result": "induced"},
      {"measurement": "Over-inflammatory responses in the lung", "setting": "[4]; intranasal adjuvant", "result": "does not induce over-inflammatory responses"},
      {"measurement": "Acute toxicity as a mucosal adjuvant", "setting": "[4]; mice", "result": "does not cause acute toxicity"},
      {"measurement": "Adjuvant activity / response in MPYS−/− mice", "setting": "[5]; MPYS−/− mice", "result": "do not respond"},
      {"measurement": "Cancer vaccine adjuvant activity", "setting": "[5]; animal models", "result": "showed cancer vaccine adjuvant activity"},
      {"measurement": "Activation of Th1 and Th2 immune response vs LPS, CpG ODN or aluminum salt based adjuvant", "setting": "[5]; mice", "result": "more potent activator"}
    ]}
  ]
}
